Target: Genome polyprotein (dengue virus type 2, UniProt P29990)
Type: functional, Thailand/16681/1984

Genome polyprotein, sequence (P29990 1346-1475 limits assumed): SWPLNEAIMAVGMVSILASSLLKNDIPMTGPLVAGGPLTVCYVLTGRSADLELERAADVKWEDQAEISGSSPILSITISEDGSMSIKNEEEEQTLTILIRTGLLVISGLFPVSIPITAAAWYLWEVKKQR
Genome polyprotein, sequence (P29990 1476-2093 limits assumed): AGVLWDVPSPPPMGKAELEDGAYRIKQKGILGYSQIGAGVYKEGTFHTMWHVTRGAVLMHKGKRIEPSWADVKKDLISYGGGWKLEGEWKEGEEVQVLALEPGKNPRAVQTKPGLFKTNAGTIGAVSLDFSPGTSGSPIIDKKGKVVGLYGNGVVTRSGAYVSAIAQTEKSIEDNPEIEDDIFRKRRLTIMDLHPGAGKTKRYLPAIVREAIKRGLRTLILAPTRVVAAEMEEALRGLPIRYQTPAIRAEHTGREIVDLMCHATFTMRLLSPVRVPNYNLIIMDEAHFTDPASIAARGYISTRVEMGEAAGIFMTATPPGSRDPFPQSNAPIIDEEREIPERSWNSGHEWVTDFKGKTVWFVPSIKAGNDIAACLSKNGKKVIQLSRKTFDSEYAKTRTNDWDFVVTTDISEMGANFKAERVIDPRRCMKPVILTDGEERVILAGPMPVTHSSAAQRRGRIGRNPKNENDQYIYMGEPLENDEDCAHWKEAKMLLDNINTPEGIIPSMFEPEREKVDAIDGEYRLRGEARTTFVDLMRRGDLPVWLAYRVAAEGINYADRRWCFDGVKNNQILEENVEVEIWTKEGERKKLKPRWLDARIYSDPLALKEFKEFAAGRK

Compound	IC50 [µM]
c1ccc(COc2cccc3[nH]cc(CN4CCC(c5cscn5)CC4)c23)cc1	> 99.5
c1ccc2c(CNCc3ccc(-c4cscn4)cc3)c[nH]c2c1	> 99.5
Cc1nocc1S(=O)(=O)N[C@H](C(=O)Nc1cccc(CN)c1)c1ccc(OCc2ccccc2)cc1	> 99.5
O=C(c1cccnc1)N1CCN(Cc2c[nH]c3ccccc23)CC1	> 99.5
NCc1cccc(NC(=O)c2cc(Cl)cc(CN)c2)c1	> 99.5
NCc1cccc(S(=O)(=O)Nc2cc(Cl)cc(NC(=O)OCc3ccccc3)c2)c1	> 99.5
NCc1ccccc1Oc1ccc(S(=O)(=O)Nc2ccc(Cl)cc2C(=O)O)cc1	> 99.5
COc1cc(NC(=O)OCc2ccccc2)nc(C(=O)Nc2cccc(CN)c2)c1	> 99.5
CN(C)Cc1csc(NC(=O)[C@@H](NC(=O)OCc2ccccc2)c2ccc(OCc3ccccc3)cc2)n1	> 99.5
O=S(=O)(c1cccnc1)N1CCN(Cc2c[nH]c3ccccc23)CC1	> 99.5
Fc1cc(F)c2[nH]cc(CN3CCC(c4cscn4)CC3)c2c1F	> 99.5
Cn1nc2c(c1NC(=O)[C@@H](NC(=O)OCc1ccccc1)c1ccc(OCc3ccccc3)cc1)CNC2	> 99.5
Cc1c(NC(=O)OCc2ccccc2)cc(C(F)(F)F)cc1C(=O)Nc1cccc(CN)c1	51.4
c1ccc(COc2ccc3[nH]cc(CN4CCC(c5cscn5)CC4)c3c2)cc1	> 99.5
Cc1c[nH]nc1CN1CCC(c2cscn2)CC1	> 99.5
O=C(Nc1cc(Cl)cc(C(=O)Nc2ncc([C@H]3CCCN3)s2)c1)OCc1ccccc1	> 99.5
CC(C)(C)c1ccc2[nH]cc(CN3CCC(c4cscn4)CC3)c2c1	> 99.5
CN1CCn2nc(NC(=O)c3cc(Cl)cc(NC(=O)OCc4ccccc4)c3)cc2C1	> 99.5
CC(C)N1CCc2nc(NC(=O)c3cc(Cl)cc(NC(=O)OCc4ccccc4)c3)sc2C1	> 99.5
CCc1cccc2c(CN3CCC(c4cscn4)CC3)c[nH]c12	> 99.5
c1ccc(-c2c[nH]nc2CN2CCC(c3cscn3)CC2)cc1	> 99.5

Compound	IC50 [µM]
CN(C)Cc1cc(NC(=O)[C@@H](NC(=O)OCc2ccccc2)c2ccc(OCc3ccccc3)cc2)ccc1Cl	> 99.5
O=C1CN(Cc2c[nH]c3ccccc23)CCN1c1cccnc1	> 99.5
COc1cc2c(CN3CCC(c4cscn4)CC3)c[nH]c2cc1Cl	> 99.5
c1cncc(N2CCCN(Cc3c[nH]c4ccccc34)CC2)c1	> 99.5
N#Cc1ccc2[nH]cc(CN3CCC(c4cscn4)CC3)c2c1	> 99.5
COc1cc(NC(=O)OCc2ccccc2)cc(C(=O)Nc2cccc(CN)c2)c1	> 99.5
NCc1cccc(NC(=O)c2ccc(OCC(F)(F)F)c(NC(=O)OCc3ccccc3)c2)c1	> 99.5
O=C(N[C@@H](C(=O)Nc1nc2c(s1)CNC2)c1ccc(OCc2ccccc2)cc1)OCc1ccccc1	> 99.5
N#Cc1cccc2c(CN3CCC(c4cscn4)CC3)c[nH]c12	> 99.5
FC1(c2cccnc2)CN(Cc2c[nH]c3ccccc23)C1	> 99.5
NCc1ccc(Oc2ccc(S(=O)(=O)Nc3ccc(Cl)cc3C(=O)NCC(F)(F)F)cc2)cc1	> 99.5
Cc1ccc(CN(C)C)cc1NC(=O)[C@@H](NC(=O)OCc1ccccc1)c1ccc(OCc2ccccc2)cc1	> 99.5
CN1CCn2nc(NC(=O)[C@@H](NC(=O)OCc3ccccc3)c3ccc(OCc4ccccc4)cc3)cc2C1	> 99.5
c1cncc([C@@H]2CN(Cc3c[nH]c4ccccc34)CCO2)c1	> 99.5
Cc1c(C(F)(F)F)n[nH]c1CN1CCC(c2cscn2)CC1	> 99.5
O=C(Nc1cccnc1)C1CCN(Cc2c[nH]c3ccccc23)CC1	> 99.5
CN(Cc1cccnc1)Cc1c[nH]c2ccccc12	> 99.5
Cc1[nH]c2ccccc2c1CN1CCC(c2nc3ccccc3s2)CC1	> 99.5
COCc1ccccc1Nc1ccc(S(=O)(=O)Nc2ccc(Cl)cc2C(=O)O)cn1	> 99.5
NCc1cccc(NC(=O)[C@H](NS(=O)(=O)Cc2ccccc2)c2ccc(OCc3ccccc3)cc2)c1	> 99.5
NC[C@H]1CC[C@H](CNC(=O)c2cc(Cl)cc(NC(=O)OCc3ccccc3)c2)CC1	> 99.5

From ChEMBL document CHEMBL5604063, “ASAP - DENV-2 NS2B-NS3 protease fluorescence dose response” (2024)
